The text below walks through data of patent US20100168421A1, “A NEW PEPTIDE DEFORMYLASE INHIBITOR COMPOUND AND MANUFACTURING PROCESS THEREOF” (priority 2007, published 2010).

What all share (assay type): biochemical
Assay [1] has as its target PDF enzyme (Escherichia coli, UniProt P0A6K3). Briefly: PDF/FDH coupled enzyme assay, E. coli. The method, then:
Activities of PDF enzyme for E. coli and S. aureus were determined using PDF/FDH coupled assay. In this coupled assay, the formate released by PDF from its substrate formyl-Methionine-Alanine-Serine (fMAS) is oxidized by coupling enzyme formate dehydrogenase (FDH), reducing one molecule of NAD^+ to NADH, which is measured absorption at 340 nm.

Assay [2] concerns the target PDF enzyme (Streptococcus pyogenes serotype M1, UniProt P68771). Briefly: PDF/FDH coupled enzyme assay, Streptococcus pyogenes.
The target of assay [3] is T1, PDF enzyme (Streptococcus pneumoniae serotype 4, UniProt Q9F2F0).
T1 sequence (Q9F2F0 1-203): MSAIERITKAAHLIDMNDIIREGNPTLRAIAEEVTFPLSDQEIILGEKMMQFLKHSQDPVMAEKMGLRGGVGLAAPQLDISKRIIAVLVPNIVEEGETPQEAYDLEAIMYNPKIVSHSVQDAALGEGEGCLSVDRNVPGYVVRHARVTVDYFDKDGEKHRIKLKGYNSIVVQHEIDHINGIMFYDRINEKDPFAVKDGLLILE
Kind of assay: PDF/FDH coupled enzyme assay, Streptococcus Pneumoniae. Particulars: substrate fMAS, absorption at 340 nm.

Each structure is given as a SMILES string.

Chain of PDF enzyme (Streptococcus pyogenes serotype M1, UniProt P68771) (P68771 whole entry): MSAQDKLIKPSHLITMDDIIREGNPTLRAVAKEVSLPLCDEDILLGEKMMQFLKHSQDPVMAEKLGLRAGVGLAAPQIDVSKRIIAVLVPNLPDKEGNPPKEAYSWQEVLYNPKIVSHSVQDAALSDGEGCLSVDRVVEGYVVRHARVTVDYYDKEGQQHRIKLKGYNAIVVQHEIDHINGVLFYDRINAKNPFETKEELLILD
Chain of PDF enzyme (Escherichia coli, UniProt P0A6K3) (P0A6K3 whole entry): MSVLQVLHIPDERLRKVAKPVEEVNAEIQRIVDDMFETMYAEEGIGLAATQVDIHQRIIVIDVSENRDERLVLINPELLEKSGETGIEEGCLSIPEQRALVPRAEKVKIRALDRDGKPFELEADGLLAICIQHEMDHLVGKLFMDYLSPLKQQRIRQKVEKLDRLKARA

In general, IC50 refers to the concentration at which inhibition is half-maximal. Read a low IC50 as greater potency. Turning to `CC(C)(C)[C@H](NC(=O)[C@H](CC1CCCC1)CN(O)C=O)C(=O)N1CCC(NCc2cc(=O)c(O)co2)CC1` [Example 30, (R)-2-Cyclopentylmethyl-3-(formyl-hydroxy-amino)-N-((S)-1-{4-[(5-hydroxy-4-oxo-4H-pyran-2-ylmethyl)-amino]-piperidin-1-carbonyl}-2,2-dimethyl-propyl)-propionamide], the IC50 was found to be 160 nM at PDF enzyme [1], 62 nM against PDF enzyme [2] and 50 nM against PDF enzyme [3].

For `CC(C)(C)[C@H](NC(=O)[C@H](CC1CCCC1)CN(O)C=O)C(=O)N1CCC(NCc2ccc(F)cc2F)CC1` [Example 10, (R)-2-Cyclopentylmethyl-N-{(S)-1-[4-(2,4-difluoro-benzylamino)-piperidine-1-carbonyl]-2,2-dimethyl-propyl}-3-(formyl-hydroxy-amino)-propionamide], the 50% inhibitory concentration (IC50) on PDF enzyme [1] came out at 122 nM; against PDF enzyme [2] it was 83 nM; against PDF enzyme [3] it was 55 nM.

Take `CC(C)(C)[C@H](NC(=O)[C@H](CC1CCCC1)CN(O)C=O)C(=O)N1CCC(NCc2ccc(O)c(O)c2)CC1` [Example 13, (R)-2-Cyclopentylmethyl-N-{(S)-1-[4-(3,4-dihydroxy-benzylamino)-piperidine-1-carbonyl]-2,2-dimethyl-propyl}-3-(formyl-hydroxy-amino)-propionamide]: the IC50 against PDF enzyme [1] stood at 133 nM; on PDF enzyme [2] it was 88 nM; against PDF enzyme [3], 46 nM.

As to `COc1coc(CNC2CCN(C(=O)[C@@H](NC(=O)[C@H](CC3CCCC3)CN(O)C=O)C(C)(C)C)CC2)cc1=O` [Example 29, (R)-2-Cyclopentylmethyl-3-(formyl-hydroxy-amino)-N-((S)-1-{4-[(5-methoxy-4-oxo-4H-pyran-2-ylmethyl)-amino]-piperidine-1-carbonyl}-2,2-dimethyl-propyl)-propionamide], the half-maximal inhibitory concentration (IC50) worked out at 155 nM against PDF enzyme [1], 54 nM against PDF enzyme [2] and 43 nM on PDF enzyme [3].

As for `CC(C)(C)[C@H](NC(=O)[C@H](CC1CCCC1)CN(O)C=O)C(=O)N1CCC(NCc2ccco2)CC1` [Example 27, (R)-2-Cyclopentylmethyl-3-(formyl-hydroxy-amino)-N-((S)-1-{4-[(furan-2-ylmethyl)-amino]-piperidine-1-carbonyl}-2,2-dimethyl-propyl)-propionamide], the IC50 against PDF enzyme [1] was 117 nM; at PDF enzyme [2] it was 63 nM; on PDF enzyme [3] it was 42 nM.

With `Cc1ccc(CNC2CCN(C(=O)[C@@H](NC(=O)[C@@H](CC(=O)NO)CC3CCCC3)C(C)(C)C)CC2)cc1` [Example 1, (R)-2-Cyclopentylmethyl-N^1-{(S)-2,2-dimethyl-1-[4-(4-methyl-benzylamino)-piperidine-1-carbonyl]-propyl}-N^4-hydroxy-succinamide], the figures for the IC50 on PDF enzyme [1], against PDF enzyme [2] and at PDF enzyme [3] were 150 nM, 70 nM and 65 nM, respectively.
